Results: US6630191B1, “Aspartyl dipeptide ester derivatives and sweeteners” (Ajinomoto Co., Inc., priority 1998, dated 2003)
Marks after values point to notes of the source that are not given here.

Tests used:
[1] = Sensory evaluation of sweetening potency relative to sugar (4% sucrose aqueous solution); conditions: for Sweetening Potency, compensated value as optical isomer / Sweetening Potency: Relative to sweetening potency of a 4% sucrose aqueous solution; for Sweetening Potency, compensated value as optical isomer: compensated value as optical isomer (DL-homophenylalanine derivatives); for Sweetening potency (relative to sugar): sensory evaluation
Source text: For example, the sweetening potency of N-[N-[3-(3-hydroxy-4-methoxyphenyl)propyl]-L-α-aspartyl]-L-(α-methyl)phenylalanine 1-methyl ester was approximately 18,000 times (relative to sugar), that of N-[N-[3-(3-methoxy-4-hydroxyphenyl)propyl]-L-α-aspartyl]-L-(α-methy)phenylalanine 1-methyl ester was approximately 18,000 times (relative to sugar), that of N-[N-[3-(3-hydroxy-4-methoxyphenyl)propyl]-L-α-aspartyl]-3-cyclohexyl-L-alanine 1-methyl ester was approximately 25,000 times (relative to sugar), that of N-[N-[3-(3-methoxy-4-hydroxyphenyl)propyl]-L-α-aspartyl]-3-cyclohexyl-L-alanine 1-methyl ester was approximately 25,000 times (relative to sugar), that of N-[N-[3-(3-methyl-4-hydroxyphenyl)propyl]-L-(α-aspartyl]-3-cyclohexyl-L-alanine 1-methyl ester was approximately 40,000 times (relative to sugar).
With respect to the aspartyl dipeptide derivatives (represented by the following general formula (5)) formed, the structures and the results of the sensory evaluation are shown in Table 1. [drawing 4]

[2] = reported in WO 94/11391; cited from earlier work

| Structure (SMILES) | Sweetening potency (relative to sugar) [1] | Sweetening Potency [1] | also measured |
| --- | --- | --- | --- |
| COC(=O)C(CCc1ccccc1)NC(=O)[C@H](CC(=O)O)NCCCc1ccc(OC)c(O)c1 (mixture of isomers) [Compound 7, N-[N-[3-(3-Hydroxy-4-methoxyphenyl)propyl]-L-α-aspartyl]-DL-homophenylalanine 1-Methyl Ester] | 1,000 times |  | Sweetening Potency, compensated value as optical isomer [1]: 2000^2) |
| COC(=O)C(CCc1ccccc1)NC(=O)[C@H](CC(=O)O)NCCCc1ccc(O)c(OC)c1 (mixture of isomers) [Compound 8, N-[N-[3-(3-Methoxy-4-hydroxyphenyl)propyl]-L-α-aspartyl]-DL-homophenylalanine 1-Methyl Ester] | 1,200 times |  | Sweetening Potency, compensated value as optical isomer [1]: 2400^2) |
| COC(=O)[C@](C)(Cc1ccccc1)NC(=O)[C@H](CC(=O)O)NCCCc1ccc(OC)c(O)c1 [Compound 1, N-[N-[3-(3-Hydroxy-4-methoxyphenyl)propyl]-L-α-aspartyl]-L-(α-methyl)phenylalanine 1-Methyl Ester] | 18,000 times | 18000 | Sweetening potency (relative to sugar) ([1]; listed as N-[N-[3-(3-hydroxy-4-methoxyphenyl)propyl]-L-α-aspartyl]-L-(α-methyl)phenylalani): approximately 18,000 times |
| COC(=O)[C@](C)(Cc1ccccc1)NC(=O)[C@H](CC(=O)O)NCCCc1ccc(O)c(OC)c1 [Compound 2, N-(N-(3-(3-Methoxy-4-hydroxyphenyl)propyl]-L-α-aspartyl]-L-(α-methyl)phenylalanine 1-Methyl Ester] | 18,000 times | 18000 | Sweetening potency (relative to sugar) ([1]; listed as N-[N-[3-(3-methoxy-4-hydroxyphenyl)propyl]-L-α-aspartyl]-L-(α-methy)phenylalanin): approximately 18,000 times |
| COC(=O)[C@H](CC1CCCCC1)NC(=O)[C@H](CC(=O)O)NCCCc1ccc(OC)c(O)c1 [Compound 3, N-[N-[3-(3-Hydroxy-4-methoxyphenyl)propyl]-L-α-aspartyl]-3-cyclohexyl-L-alanine 1-Methyl Ester] | 25,000 times | 25000 | Sweetening potency (relative to sugar) ([1]; listed as N-[N-[3-(3-hydroxy-4-methoxyphenyl)propyl]-L-α-aspartyl]-3-cyclohexyl-L-alanine): approximately 25,000 times |
| COC(=O)[C@H](CC1CCCCC1)NC(=O)[C@H](CC(=O)O)NCCCc1ccc(O)c(OC)c1 [Compound 4, N-[N-(3-(3-Methoxy-4-hydroxyphenyl)propyl]-L-α-aspartyl]-3-cyclohexyl-L-alanine 1-Methyl Ester] | 25,000 times | 25000 | Sweetening potency (relative to sugar) ([1]; listed as N-[N-[3-(3-methoxy-4-hydroxyphenyl)propyl]-L-α-aspartyl]-3-cyclohexyl-L-alanine): approximately 25,000 times |
| COC(=O)C(NC(=O)C(CC(=O)O)NCCCc1ccc(OC)c(O)c1)c1ccccc1 [Compound 5, N-[N-[3-(3-Hydroxy-4-methoxyphenyl)propyl]-L-α-aspartyl]-L-phenylglycin 1-Methyl Ester] | 1,600 times | 1600 |  |
| COC(=O)C(NC(=O)C(CC(=O)O)NCCCc1ccc(O)c(OC)c1)c1ccccc1 [Compound 6, N-[N-[3-(3-Methoxy-4-hydroxyphenyl)propyl]-L-α-aspartyl]-L-phenylglycin 1-Methyl Ester] | 700 times | 700 |  |
| CCCOC(=O)[C@@H](C)NC(=O)[C@H](CC(=O)O)NCCCc1ccc(OC)c(O)c1 [Compound 9, N-[N-[3-(3-Hydroxy-4-methoxyphenyl)propyl]-L-α-aspartyl]-D-alanine 1-n-Propyl Ester] | 800 times | 800 |  |
| CCCOC(=O)[C@@H](C)NC(=O)[C@H](CC(=O)O)NCCCc1ccc(O)c(OC)c1 [Compound 10, N-[-[3-(3-Methoxy-4-hydroxyphenyl)propyl]-α-aspartyl]-D-alanine 1-n-Propyl Ester] | 600 times | 600 |  |
| COC(=O)C(C)(Cc1ccccc1)NC(=O)C(CC(=O)O)NCCCc1ccc(OC)cc1O [Compound 11, N-[N-[3-(2-Hydroxy-4-methoxyphenyl)propyl]-L-α-aspartyl]-L-(α-methyl) Phenylalanine 1-Methyl Ester] | 15,000 times | 15000 |  |
| COC(=O)[C@H](CC1CCCCC1)NC(=O)[C@H](CC(=O)O)NCCCc1ccc(O)c(C)c1 [Compound 12, N-[N-(3-(3-Methyl-4-hydroxyphenyl)propyl]-L-α-aspartyl]-3-cyclohexyl-L-anine 1-Methyl Ester] | 40,000 times | 40000 | Sweetening potency (relative to sugar) ([1]; listed as N-[N-[3-(3-methyl-4-hydroxyphenyl)propyl]-L-(α-aspartyl]-3-cyclohexyl-L-alanine): approximately 40,000 times |
| Cc1ccc(CCCN[C@@H](CC(=O)O)C(=O)N[C@@H](CC2CCCCC2)C(=O)O)c(O)c1 [Compound 13] | 25,000 times | 25000 |  |
| COC(=O)[C@H](Cc1ccccc1)NC(=O)[C@H](CC(=O)O)NCCC(C)(C)C [N-[N-(3,3-dimethylbutyl)-L-α--aspartyl]-L-phenylalanine 1-methyl ester] |  |  | Sweetening potency, times that of sugar [2]: 10,000 times |
| COC(=O)C(Cc1ccc(O)cc1)NC(=O)C(CC(=O)O)NCCC(C)(C)C [N-[N-(3,3-dimethylbutyl)-L-α-aspartyll-L-tyrosine 1-methyl ester] |  |  | Sweetening potency, times that of sugar [2]: 4,000 times |
| COC(=O)[C@H](Cc1ccccc1)NC(=O)[C@H](CC(=O)O)NCCCc1ccccc1 [N-[N-(3-phenylpropyl)-L-α-aspartyl]-L-phenylalanine 1-methyl ester] |  |  | Sweetening potency, times that of sugar [2]: 1,500 times |
| COC(=O)[C@H](Cc1ccccc1)NC(=O)[C@H](CC(=O)O)NCCCc1ccc(O)c(OC)c1 [N-[N-[3-(3-methoxy-4-hydroxyphenyl)propyl]-L-α-aspartyl]-L-phenylalanine 1-methyl ester] |  |  | Sweetening potency, times that of sugar [2]: 2,500 times |
